Values quoted from earlier work in patent US20240398745A1, “COMPOSITION AND METHODS OF TREATMENT USING […] - ENHANCED SUPPLEMENTATION” (Xygenyx Inc., priority 2023, published 2024).
Square brackets hold non-standard residues; d marks the D form. Peptide text beside a SMILES is read from it. Cit = NC(=O)NCCC[C@H](N)C(=O)O

Assays:
[1] = in vivo
[2] = system: wide dynamic range neurons in the ventroposterolateral nucleus of the thalamus; settings: believed
[3] = α-tocopherol taken as 1.0
skin [4] = settings: topical formulations, within four weeks of treatment
[5] = even when dietary intake occurs in equal portions
skin [6] = settings: topical, concentrations 0.5-5%
[7] = in vivo; remark: listed apart in the source

HGH: hormone comprising a peptide chain that is synthesized in the pituitary gland
biological half-life [1]: 10-20 minutes

CCCCCc1cc(O)c2c(c1)OC(C)(C)C1CCC(C)=CC21 (stereo not drawn) [THC, Δ-9-tetrahydrocannabinol]
power in mediating pain relative to morphine [2]: ten times more powerful than morphine

Cc1cc(O)c(C)c2c1O[C@](C)(CCC[C@H](C)CCC[C@H](C)CCCC(C)C)CC2 [β-tocopherol]
relative biological activity [3]: 0.5

CC[C@H](C)[C@H](NC(=O)[C@H](CC(=O)O)NC(=O)[C@@H](N)CCCCN)C(=O)N[C@@H](CCCNC(N)=O)C(N)=O [tripeptide-10 citrulline, Tripeptide-10 citrulline] (H-KDI[Cit]-NH2)
improvement of suppleness (skin [4]): ≤ 54%

Cc1c(C)c2c(c(C)c1O)CC[C@@](C)(CCC[C@H](C)CCC[C@H](C)CCCC(C)C)O2 [α-tocopherol]
reduction of risk of coronary disease (dietary supplementation, doses up to 400 IU/day): up to 34%
reduction of risk of developing neurodegenerative diseases such as Alzheimer's Syndrome or dementia (dietary supplementation, doses up to 400 IU/day, controlled trials): ≤ 24%
reduction in the development of age-related cataracts (in combination with 10-20 mg β-carotene and 400-500 mg vitamin C, doses around 400-500 IU): 23%

Cc1cc(O)cc2c1O[C@](C)(CCC[C@H](C)CCC[C@H](C)CCCC(C)C)CC2 [δ-tocopherol]
relative biological activity [3]: 0.03

Cc1c(O)cc2c(c1C)O[C@](C)(CCC[C@H](C)CCC[C@H](C)CCCC(C)C)CC2 [γ-tocopherol]
relative biological activity [3]: 0.1
concentration in vivo relative to α-tocopherol [5]: roughly 10%

C=CCCCCCCCCC(=O)N[C@@H](Cc1ccccc1)C(=O)O [UP, Undecylenoyl phenylalanine]
time of treatment to skin lightening effects (skin [6]): ≥ 7 days

CCNC(=O)CC[C@H](N)C(=O)O [Theanine]
dose generally considered safe and well-tolerated [7]: up to 400 mg per day
